Results reported in article PMC7699247 (Antibiotics, 2020).
Like-named read-outs stand apart in the source and are kept apart here.

Tests used:
[1] = molecular target: T1, membrane-bound E. coli F1F0-ATPase (Escherichia coli, UniProt P0ABB4); assay: biochemical; design: endogenous in cells; host or cells: Escherichia coli culture; crude membrane pellet after EDTA, freeze-thaw, sonication and centrifugation; species or system Escherichia coli (ATCC 25922)
Method: The supernatant is then removed.
Assays for each phosphate concentration were done in triplicate.
All tests were performed in triplicate.
IC50 values were determined using the PRISM® 5.04 (GraphPad software, San Diego, CA, USA) software, from a dose-response curve established by drawing the percentage of enzymatic activity (%) at different concentrations of the inhibitor expressed in terms of a log (inhibitor) (μM).
Different volumes of the stock solution of venom prepared in the buffer tris-HCl (pH = 8.5; 50 mM) are added to the reaction medium containing the transmembrane enzyme followed by ATP at 100 μM. […] The reaction is then stopped by the addition of 1% SDS (v/v). […] All assays were performed in triplicate.
Different volumes of the stock solution of phospholipase A2 are added to the reaction medium containing the isolated membrane-bound enzyme followed by ATP at 100 μM.
The effect of melittin on the membrane-bound F1F0-ATPase is studied as described in Section 4.7. Different volumes of the stock solution of melittin are added to the reaction medium containing the enzyme followed by ATP at 100 μM. […] The reaction is then stopped using a solution of 1% SDS (v/v). […] IC50 values were obtained from the dose-response curve using PRISM® 5.04 software. All assays were done in triplicate.

[2] = molecular target: T1, membrane-bound E. coli F1F0-ATPase; design: endogenous in cells; host or cells: Escherichia coli culture; crude membrane pellet after EDTA, freeze-thaw, sonication and centrifugation; settings: literature value, ref [7]; cited from earlier work
Excerpt: Figure 2 (a) Dose-response curve representing the enzymatic activity (%) of E. coli F1F0-ATPase as a function of the log of the concentration of thymoquinone, quercetin and melittin, respectively. Error bars show the standard deviation obtained from experiments done in triplicate; (b) Comparison between the IC50 values of the reference inhibitors obtained by the developed method and from the literature. […] Good repeatabilities were obtained with relative standard deviations (RSD) below 6% and R^2 > 0.99. Likewise, melittin is found to be a strong potent inhibitor of E. coli F1F0-ATPase with its low IC50 value in the micromolar range.

[3] = molecular target: T1, membrane-bound E. coli F1F0-ATPase; assay: Combination effect of PLA2 and melittin on membrane-bound E. coli F1F0-ATPase; settings: read-out: remaining enzymatic activity, melittin alone

SMILES | IC50 ([1]; read-out: IC50) [µM] | IC50 [2] [µM] | IC50 [1] [µM] | maximum inhibition ([1]; plateau of concentration curve, ATP 100 μM, 40 min, 37 °C, pH 8.5, triplicate) | remaining activity at 9 µM [3] [%]
CC1=CC(=O)C(C(C)C)=CC1=O [Thymoquinone, thymoquinone] | 57.5 ± 2.99 |  |  |  | 
O=c1c(O)c(-c2ccc(O)c(O)c2)oc2cc(O)cc(O)c12 [Quercetin, quercetin] | 30 ± 1.5 | 33 |  |  | 
CC[C@H](C)[C@H](NC(=O)CN)C(=O)NCC(=O)N[C@@H](C)C(=O)N[C@H](C(=O)N[C@@H](CC(C)C)C(=O)N[C@@H](CCCCN)C(=O)N[C@H](C(=O)N[C@@H](CC(C)C)C(=O)N[C@H](C(=O)N[C@H](C(=O)NCC(=O)N[C@@H](CC(C)C)C(=O)N1CCC[C@H]1C(=O)N[C@@H](C)C(=O)N[C@@H](CC(C)C)C(=O)N[C@H](C(=O)N[C@@H](CO)C(=O)N[C@@H](Cc1c[nH]c2ccccc12)C(=O)N[C@H](C(=O)N[C@@H](CCCCN)C(=O)N[C@@H](CCCNC(=N)N)C(=O)N[C@@H](CCCCN)C(=O)N[C@@H](CCCNC(=N)N)C(=O)N[C@@H](CCC(N)=O)C(=O)N[C@@H](CCC(N)=O)C(N)=O)[C@@H](C)CC)[C@@H](C)CC)[C@@H](C)O)[C@@H](C)O)C(C)C)C(C)C [melittin] |  |  | 9.03 ± 0.27 | about 80% | 51.7
